As usually defined, the IC50 is the concentration needed to halve the response being measured. By EC50 is commonly meant the concentration needed to bring the measured effect to its halfway point.

Like-named read-outs stand apart in the source and are kept apart here.

One series addresses T1, CypA (Homo sapiens, UniProt P62937).
T1 construct: hexahistidine tag (His-Tag) (C); made in house; host or cells: E. coli C41(DE3)
Nature of the series: PPIase enzyme assay (chymotrypsin-coupled), CypA. The series is classed as biochemical. The settings on record: 20 °C, mean±s.d. How it is done: (§1) CypA and CypB proteins carrying a hexahistidine tag (His-Tag) at their carboxy terminus were expressed in E. coli and purified. Briefly, cultures of C41(DE3) cells were grown at 37 °C for 1 h until the culture reached an OD of 0.6 at 600 nm and then induced with 1 mM isopropyl-β-D-thiogalactopyranoside for 4 h at 37 °C (CypA) or overnight at 22 °C (CypB). Cell pellets were resuspended in a lysis buffer 20 mM NaH2PO4 pH 7.8, 300 mM NaCl, 7 mM β-mercaptoethanol, 1 mg ml^−1 lysozyme, 0.1 U μl^−1 desoxyribonuclease and complete protease inhibitor tablets (Roche Diagnostics Corporation, Indianapolis, Indiana). […] The bound protein was eluted in 1 ml fractions with a buffer composed of 20 mM NaH2PO4 pH 7.8, 300 mM NaCl, 250 mM imidazole, 7 mM β-mercaptoethanol and 10% glycerol, monitored by the Bradford colorimetric assay. The purity of each cyclophilin was determined by Coomassie-stained SDS–PAGE analysis.

Another series deals with T2, CypB (Homo sapiens, UniProt P23284).
T2 construct: hexahistidine tag (His-Tag) (C); made in house; host or cells: E. coli C41(DE3)
T2 sequence (P23284 34-216): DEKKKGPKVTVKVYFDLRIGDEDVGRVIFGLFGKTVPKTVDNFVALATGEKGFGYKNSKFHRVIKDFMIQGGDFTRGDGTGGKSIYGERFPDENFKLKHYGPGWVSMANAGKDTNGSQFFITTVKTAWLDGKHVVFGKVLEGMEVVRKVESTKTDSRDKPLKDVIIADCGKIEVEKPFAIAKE
Nature of the series: biochemical. The series is classed as biochemical. The method, then:
as §1

The next series deals with HCV genotype 1b replicon. The series is described as follows: microbe, parasite or virus in culture. The series is classed as cell-based, hepatitis C virus.
The subject of another series is HCoV-229E. The series is described as follows: Anti-human coronavirus 229E activity in MRC5 cells. The series is classed as cell-based. The note with it: 72 h, viral cytopathic effect. On the technique in general: Damage to the host cells serves as the signal in cytopathic effect assays.
A short description of series [1]: in vitro. The settings on record: human.
A short description of series [2]: in vitro. The note with it: human. The source holds these as a separate data set.
A further series has as its target CypD (Homo sapiens, UniProt P30405, K175I). Nature of the series: PPIase enzyme assay (chymotrypsin-coupled), CypD. The note with it: for LE (ligand efficiency): Supplementary Figure 1, NMR fragment hits.
Series [3] concerns the target cyclophilin PPIase activity. Nature of the series: PPIase enzyme assay, cyclophilin not specified. It counts as biochemical, human. The note with it: compounds lacking the ester function; read-out: cyclophilin inhibition IC50.
Description: (§2) Cyclophilin PPIase activity was measured at 20 °C by using the standard chymotrypsin-coupled assay. […] Then, 5 μl of 50 mg ml^−1 chymotrypsin in 1 mM HCl was added. […] After a delay from the onset of mixing, the absorbance of p-nitroaniline was followed at 390 nm until the reaction was complete (1 min). The final concentration of LiCl in the assay was 20 mM and TFE was present at a concentration of 4% (v/v). Absorbance readings were collected every 1 s by a spectrophotometer. For inhibition assessment, 5 μl of the tested compound in dimethyl sulfoxide (DMSO) was added to the cyclophilin solution in the assay buffer. […] The percentage inhibition of cyclophilin PPIase activity was calculated from the slopes and the values obtained represent the mean±s.d. of at least two independent measurements.
A further series deals with HIV-IIIb. Nature of the series: Anti-HIV activity in MT4 cells. It counts as cell-based, human immunodeficiency virus. The note with it: 5 days.
The subject of another series is MRC5 cells. The series is described as follows: Cellular toxicity in MRC5 cells. The settings on record: read-out: MRC5 cells CC50; MRC5 cells.
A further series has as its system MT4 cells. Nature of the series: Cytotoxicity in uninfected MT4 cells. The settings on record: read-out: MT4 cells CC50.
In a further series the test system is Huh7 cells. Nature of the series: Cellular toxicity in Huh7 replicon cells. The note with it: read-out: HCV genotype 1b replicon CC50; Huh7 cells.
The next series concerns calcineurin. Nature of the series: Calcineurin phosphatase assay. The settings on record: binary complex with CypA, 1:1 molar ratio. The series is classed as biochemical. How it is done:
The inhibition of calcineurin phosphatase activity was measured by measuring the dephosphorylation of p-nitrophenyl phosphate (R&D Systems, Minneapolis, USA), according to the manufacturer’s instructions. […] After p-nitrophenyl phosphate addition, the reaction was run for 35 min at 37 °C. The reaction was terminated by addition of BIOMOL green reagent and OD was measured at 630 nm. The results are the means of three independent experiments performed in duplicate. They are presented as the percentage of calcineurin activity relative to that in the inhibitor-free control.

Series [4] has as its system IL-2 production in Jurkat cells. The series is described as follows: Inhibition of IL-2 production in Jurkat cells. The series is classed as cell-based. The note with it: stimulated Jurkat cells.
Description: Duplicate evaluations were included for each test concentration. […] After a 6 h incubation, sample supernatants were collected for measurement of IL-2 production using a commercial kit (Quantikine ELISA, R&D Systems).
The subject of the next series is mPTP. Also noted: method as in Panel M, Ahmed-Belkacem A, et al., manuscript in preparation. The settings on record: as a result of CypD inhibition; ref Panel M, Ahmed-Belkacem A, et al., manuscript in preparation; cited from earlier work.
Series [5] can be described thus: Cellular toxicity in MRC5 cells. The settings on record: human, MRC-5 cells.
Series [6] is described as follows: Cellular toxicity in Huh7 replicon cells. The note with it: human, Huh7 cells with HCV genotype 1b replicon.
[7] abbreviates: Hepatitis C virus, Huh-7, 72 h, read-out: HCV genotype 1b replicon EC50.
[8] abbreviates: PPIase enzyme assay, 20 °C, mean±s.d., read-out: CypB IC50.
The mark [9] stands for this setting: read-out: CypD IC50, PPIase enzyme assay, 20 °C, mean±s.d.
Setting [10] is: Huh7 cells, 3 days, HCV RNA, read-out: HCV genotype 1b replicon EC50.
The mark [11] stands for this setting: wild-type genotype 1b replicon, comparison with mutated replicons (Table 3), read-out: EC50 HCV (WT) subgenomic replicon.

CypD, sequence (P30405 44-207 K175I): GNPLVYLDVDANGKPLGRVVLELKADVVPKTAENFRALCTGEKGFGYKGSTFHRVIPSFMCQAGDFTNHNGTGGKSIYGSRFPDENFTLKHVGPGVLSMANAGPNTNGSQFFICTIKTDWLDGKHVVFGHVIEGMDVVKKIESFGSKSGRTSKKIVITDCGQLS
T1 sequence (P62937 whole entry): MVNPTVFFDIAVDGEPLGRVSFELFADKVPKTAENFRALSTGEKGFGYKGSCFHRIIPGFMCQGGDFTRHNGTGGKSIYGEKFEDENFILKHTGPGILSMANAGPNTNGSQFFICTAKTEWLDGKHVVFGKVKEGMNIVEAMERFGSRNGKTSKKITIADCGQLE
Description for CypD: as §2

On to `C/C=C/C[C@@H](C)[C@@H](O)[C@H]1C(=O)N[C@@H](CC)C(=O)N(C)[C@H](C)C(=O)N(CC)[C@@H](C(C)C)C(=O)N[C@@H](C(C)C)C(=O)N(C)[C@@H](CC(C)C)C(=O)N[C@@H](C)C(=O)N[C@H](C)C(=O)N(C)[C@@H](CC(C)C)C(=O)N(C)[C@@H](CC(C)C)C(=O)N(C)[C@@H](C(C)C)C(=O)N1C` [Alisporivir, alisporivir, reference compound], for which the IC50 at CypA was 0.07 ± 0.003 µM; at CypB, 0.04 ± 0.012 µM; on CypD, 0.03 ± 0.005 µM. Besides, the EC50 was 0.01 ± 0.0007 µM with HCV genotype 1b replicon (setting [7]); 0.04 ± 0.0005 µM with HCV genotype 1b replicon (Hepatitis C virus, Huh-7, read-out: EC50 HCV (WT) subgenomic replicon); 2.6 ± 0.6 µM with HCoV-229E (Human coronavirus 229E). In “in vitro [1]”, this compound showed a CC50 of 32.3 ± 22 µM. Moreover, the CC50 at 72 h in “in vitro [2]” stood at 9.7 ± 2.2 µM.

With `Nc1ccc(CNC(=O)NCC(=O)N2CCCC2)cc1` [Compound 23], the IC50 (on CypA; at CypB (setting [8]); in series [3]; on CypD (setting [9])) was over 500 µM throughout.

`COc1ccccc1C1CCCN1C(=O)CNC(=O)NCc1ccc(N)cc1` (stereo not drawn) [Compound 24]: the IC50 against CypA worked out at 2.8 ± 0.6 µM; at CypB (setting [8]), 1.2 ± 0.1 µM; on CypD (setting [9]) it was 11.4 ± 3 µM.

With `Nc1ccc(CNC(=O)NCC(=O)N2CCCC2c2ccccc2Cl)cc1` (stereo not drawn) [Compound 25], the results for the half-maximal inhibitory concentration (IC50) at CypA, at CypB (setting [8]) and at CypD (setting [9]) were 3.4 ± 0.7 µM, 3.7 ± 1.4 µM and 6.2 ± 2.3 µM, respectively.

Regarding `Nc1ccc(CNC(=O)NCC(=O)N2CCCC2c2ccccc2Br)cc1` (stereo not drawn) [Compound 26], the EC50 in the series with HCV genotype 1b replicon (setting [10]) was 6 ± 0.7 µM; in the series with HIV-IIIb it was 3.6 ± 0.8 µM; in the series on HCoV-229E, 66.3 ± 24 µM. In addition, the CC50 in the series on MRC5 cells is over 100 µM; in the series on MT4 cells it was over 53 µM; in the series with Huh7 cells it was over 100 µM.

For the compound `CSc1ccccc1C1CCCN1C(=O)CNC(=O)NCc1ccc(N)cc1` (stereo not drawn) [Compound 27], the IC50 against CypA was 0.4 ± 0.1 µM; on CypD (setting [9]), 0.6 ± 0.1 µM. The EC50 with HCV genotype 1b replicon (setting [10]) was 2.7 ± 2.5 µM; in the series with HCV genotype 1b replicon (setting [11]), 5.6 ± 0.7 µM; with HIV-IIIb, 6.8 ± 2.3 µM; with HCoV-229E, 34.6 ± 18.3 µM. The CC50 with MRC5 cells is over 100 µM; in the series on MT4 cells, over 53 µM; in the series on Huh7 cells, over 100 µM.

In the case of `Nc1ccc(CNC(=O)NCC(=O)N2CCCC2c2cccc3ccccc23)cc1` (stereo not drawn) [Compound 28], the results for the IC50 against CypA, at CypB (setting [8]) and on CypD (setting [9]) were 1.5 ± 0.5 µM, 1.8 ± 0.9 µM and 1.4 ± 0.2 µM, respectively.

Regarding `CSc1ccccc1C1CCCN1C(=O)C(NC(=O)NCc1ccc(N)cc1)c1ccccc1` (stereo not drawn) [Compound 31], the figures for the IC50 on CypA, on CypB (setting [8]) and at CypD (setting [9]) were 0.1 ± 0.07 µM, 0.08 ± 0.04 µM and 0.2 ± 0.08 µM, respectively. Also, the “EC50 fold higher than the EC50 of alisporivir” value with HCV genotype 1b replicon (HCV genotype 1b replicon, Huh7 cells) is about 40. Besides, the EC50 in the series with HCV genotype 1b replicon (setting [10]) is 0.4 ± 0.3 µM; in the series with HCV genotype 1b replicon (setting [11]), 0.3 ± 0.16 µM; in the series on HCoV-229E, 44.7 ± 2.2 µM; in series [4] it was over 20 µM. Further, the “inhibition of calcineurin phosphatase activity” value in the series with calcineurin was “no inhibition was observed”. For the same compound, the mPTP opening entry with mPTP is “inhibits mPTP opening”. The CC50 in the series on MRC5 cells and in the series on Huh7 cells was over 100 µM each time.

On to `CCOC(=O)CNC(=O)NC1CCc2ccc(N)cc21` (stereo not drawn) [Compound 32], for which the 50% inhibitory concentration (IC50) was 7.4 ± 6.8 µM against CypA, 8.7 ± 1.5 µM at CypB (setting [8]) and 12.8 ± 2.5 µM at CypD. In addition, the EC50 with HCV genotype 1b replicon (setting [7]) was 8 ± 1.3 µM; in the series with HCoV-229E (Human coronavirus 229E), 71.5 ± 4.3 µM. This compound had a CC50 at 72 h in series [5] of over 100 µM. Also, in series [6], the CC50 was over 100 µM.

For the compound `COC(=O)CS(=O)(=O)c1ccccc1` [Fragment 1], on CypD, the “% CypD inhibition (%I) at 1 mM” value is 40% and the “LE (ligand efficiency)” value is recorded as under 0.29.

On to `O=S1(=O)CC=CC1` [Fragment 2], for which the “% CypD inhibition (%I) at 1 mM” value on CypD is recorded as 2%.

As to `Nc1ccc(C(=O)O)cc1` [Fragment 3], on CypD, the “% CypD inhibition (%I) at 1 mM” value was 32% and the “LE (ligand efficiency)” value is recorded as under 0.42.

With `ON=Cc1ccccc1` [Fragment 8], on CypD, the “% CypD inhibition (%I) at 1 mM” value came out at 32% and the “LE (ligand efficiency)” value is under 0.46.

Regarding `Nc1ccc(S(=O)(=O)NC(=O)c2ccccc2)cc1` [Fragment 9], on CypD, the “% CypD inhibition (%I) at 1 mM” value was determined as 39% and the “LE (ligand efficiency)” value is recorded as under 0.24.

With `O=CN1CCCC1` [Fragment 13], the half-maximal inhibitory concentration (IC50) on CypA, on CypB (setting [8]) and on CypD (setting [9]) was over 5000 µM in each case.

For the compound `O=C(NC(=O)c1c(F)cccc1Cl)NC1c2ccccc2-c2ccccc21` [TMN-355, reference compound], the IC50 on CypB (setting [8]) and on CypD (setting [9]) was over 100 µM in each case. In addition, the EC50 with HCV genotype 1b replicon (setting [10]) was over 50 µM. Further, the CC50 was found to be 1.04 ± 0.46 µM in the series with MRC5 cells and 4.48 ± 2.1 µM with Huh7 cells.
